Read-outs that look alike come from different tables or passages of the source. Square brackets hold non-standard residues; d marks the D form. Peptide text beside a SMILES is read from it. βAla = NCCC(=O)O
Legend:
primary human PTECs = assay type: cell-based; design: Improvement in cell survival: dose or concentration left out as unconfirmed; settings: for Cell survival after ischemic stress: PTECs, ATP depletion, versus control peptide
Method: Exposure to metabolic inhibitors is an established model of ischemic stress that reduces ATP content to, 10% of baseline values until recovery is initiated.24,26 To achieve ATP depletion, cells were washed three times in glucose-free DMEM (Invitrogen, Carlsbad, CA) followed by incubation in glucose-free DMEM containing sodium cyanide (5 mM) and 2-deoxy-glucose (5 mM) for the indicated times.26
Recovery was initiated by replacing the stress medium described above with complete primary cell culture medium containing glucose and substrates that support the rapid restoration of cell ATP.27
(§1) For in vitro testing in primary human PTECs, peptides ([…]) were tested that replicate the Bax domain responsible for binding NPM,34 or two peptides designed to interfere with NPM function were compared with a random nonspecific sequence of the same length (control). Peptides intended to interfere with NPM function overlap key phosphorylation sites located at the NPM amino terminus (peptide 2) or carboxy terminus (peptide 3) detected by mass spectrometry. To improve cell uptake, all peptides contained a cell-penetrating sequence13. For in vivo experiments, a renal-targeting sequence (NLS) was added to enhance renal peptide uptake.35 Peptides were commercially synthesized (Biomatik, Wilmington, DE) J Am Soc Nephrol 30: ccc-ccc, 2018 Nucleophosmin in AKI 3www.jasn.org BASIC RESEARCHas follows: NPM-Bax blocking peptide: Ac-KKKRKV-(bA)-[…]-COOH (SEQ ID NO: 8); peptide 2: AC-PKKKRKV-(bA)-[…]-COOH (SEQ ID NO: 9); and peptide 3: AC-PKKKRKV-(bA)-ESFKK-QEKTPKTPKGPSSVED-IKAK-COOH (SEQ ID NO: 10). A single dose (100 mg/g body wt of the NPM-Bax blocking or control peptide) was administered by tail vein injection immediately after release of the pedicle clamps(0 timepoint) as well as 1,2,3,4, 5, and 6 hours later in each experimental group. A total of 42 control and 56 experimental animals were studied.
(§2) Transient exposure to metabolic inhibitors replicates ischemia in vivo by activating Bax and causing cell death.13,29,36-38 Cell viability was assayed using a modified colorimetric technique (MTTassay).37 The number of surviving cells is expressed as a percentage of viable control cells detected at baseline. Serum BUN and creatinine levels were measured in tail vein blood samples for 7 days after ischemia using QuantiChrom BUN or creatinine assay kits (BioAssay Systems, Hayward, CA) according to the manufacturer's instructions.

[1] = test system: mice subjected to bilateral renal pedicle clamping; assay: Ischemic AKI by bilateral renal pedicle clamping (BUN, creatinine, survival); assay type: in vivo, C57BL/6J mice; settings: for Renal function (serum BUN): days 1-7 post-ischemia, single i.v. dose 100 μg/g within 3 h after 28 min ischemia, versus control peptide; for Animals surviving severe ischemic AKI: single dose 0-3 hours after releasing clamps; for Animal deaths on day 1 post-AKI / Survival / Total deaths / Animal deaths on day 2 post-AKI / Animal deaths on day 3 post-AKI: n = 8; for Animal deaths on day 1 post-AKI / Animal deaths on day 2 post-AKI / Animal deaths on day 3 post-AKI: 28 min renal ischemia; for Survival: 7 d; for Total deaths: recorded for 7 d
Excerpt: All animals were maintained under the guidance and policies of the Boston University Animal Core facility using National Institutes of Health (NIH) and Institutional Animal Care and Use Committee guidelines. Male and female C57BL/6J mice were purchased from Jackson Laboratory (Bar Harbor, ME), and they were housed and bred at the Boston University Animal Core facility under license number AN-15024. […] Animas were handled in a manner consistent with the NIH guide for their care and use under Institutional Animal Care and Use Committee approval.
Mice were subjected to bilateral renal pedicle clamping after being anesthetized with 2,2,2-tribromoethanol. […] 13,28,29 Slight variation in the clamp time was required to achieve similar degrees of renal dysfunction in the relatively large number of animals studied. The clamp was then removed, and reperfusion was confirmed by visual inspection of the kidneys. Sham ischemia was performed by encircling each renal pedicle with a nonocclusive ligature.
as §1, with “A single dose (100 mg/g body wt of the NPM-Bax blocking or control peptide) was administered by tail vein injection immediately after release of the pedicle clamps(0 timepoint) as well as 1,2,3,4, 5, and 6 hours later in each experimental group.” left out
as §2

[2] = 28 min bilateral pedicle clamping

## CC[C@H](C)[C@H](NC(=O)[C@@H](NC(=O)[C@H](CC(C)C)NC(=O)[C@H](CO)NC(=O)[C@H](C)NC(=O)[C@@H](NC(=O)[C@H](CC(C)C)NC(=O)[C@@H](NC(=O)CNC(=O)[C@H](C)NC(=O)[C@@H](NC(=O)[C@H](Cc1ccccc1)NC(=O)[C@@H](NC(=O)[C@@H](NC(=O)[C@@H](NC(=O)[C@@H](NC(=O)CCNC(=O)[C@@H](NC(=O)[C@H](CCCCN)NC(=O)[C@H](CCCNC(=N)N)NC(=O)[C@H](CCCCN)NC(=O)[C@H](CCCCN)NC(=O)[C@H](CCCCN)NC(C)=O)C(C)C)[C@@H](C)O)C(C)C)[C@@H](C)O)[C@@H](C)CC)C(C)C)C(C)C)[C@@H](C)O)[C@@H](C)O)C(=O)N[C@@H](Cc1c[nH]c2ccccc12)C(=O)N[C@@H](CCCCN)C(=O)N[C@@H](CCCCN)C(=O)N[C@@H](CCSC)C(=O)NCC(=O)O [Peptide #1] (Ac-KKKRKV[βAla]TVTIFVAGVLTASLTIWKKMG-OH)
Primary human PTECs
  Improvement in cell survival: 25%
Primary human PTECs; listed as Bax peptide
  Cell survival after ischemic stress: significantly improve cell survival
Primary human PTECs; listed as NPM blocking peptide
  Cell survival after ischemic stress: improves renal cell survival
[1]; 22 min bilateral renal ischemia
  Animals surviving: 98%
[1]; [2]
  Animal survival: all survived
  Mean peak BUN: 100 m/dl
[1]; day 1, peptide administered 3 hours after ischemia, versus control
  Serum creatinine: significantly reduced
[1]; day 1 post-ischemia, single dose after 28 min ischemia
  Reduction of serum creatinine: ~50%
[1]; days 1-6, IV within 3 hr after 22 min bilateral renal ischemia, versus random peptide
  Improvement of BUN: 15-35%
[1]; listed as Blocking peptide
  Renal function (serum BUN): significantly improved renal function
[1]; listed as renal targeted peptide designed to interfere with Bax-NPM complex formation
  Renal function (serum BUN): significantly lower BUN levels
[1]; dose above 2 mg/animal (7 μM) or second dose within 24 hr, ischemic PTEC or mice
  Additional protection from higher or repeated dose: did not provide additional protection
[1]; dose administered at 0, 1, 2 or 3 h post-ischemia, listed as Blocking peptide
  Protection against lethal renal ischemia (animal survival): significant protection
[1]; dose administered at 0, 1, 2 or 3 h post-ischemia, listed as blocking peptide
  Protection against lethal renal ischemia (animal survival): for 7-d post-pedicle clamp release; no deaths were observed after 3 d. Significant protection
[1]; mice, administered before the insult
  Reduction of AKI severity: 40-50%
[1]; mouse, in vivo
  Improvement of kidney function (reduced both BUN and creatinine): 50%
[1]; peptide-treated animals
  Recovery of renal function: complete
  Time recovery of renal function was sustained: at least 4 weeks
[1]; same dose administered 4, 5, or 6 h after ischemia, listed as Blocking peptide
  Protection against lethal renal ischemia (animal survival): no protection was observed
[1]; same dose administered 4, 5, or 6 h after ischemia, listed as blocking peptide
  Protection against lethal renal ischemia (animal survival): 3 h post-AKI (P, 0.05); the blocking peptide was not protective if administered at 4, 5, or 6 h
[1]; 28 min ischemia, listed as Blocking peptide
  Animals surviving severe ischemic AKI: 88%
[1]; 28 min ischemia, listed as NPM inhibitor peptide
  Animals surviving severe ischemic AKI: 75%-88%
[1]; single dose 0 h post-AKI
  Animal deaths on day 1 post-AKI: 1
  Survival: 88%
  Total deaths: 1
[1]; single dose 1 h post-AKI
  Animal deaths on day 1 post-AKI: 1
  Animal deaths on day 2 post-AKI: 1
  Survival: 75%
  Total deaths: 2
[1]; single dose 2 h post-AKI
  Animal deaths on day 2 post-AKI: 1
  Survival: 88%
  Total deaths: 1
[1]; single dose 3 h post-AKI
  Animal deaths on day 2 post-AKI: 1
  Survival: 88%
  Total deaths: 1
[1]; single dose 4 h post-AKI
  Animal deaths on day 1 post-AKI: 1
  Animal deaths on day 2 post-AKI: 4
  Animal deaths on day 3 post-AKI: 3
  Survival: 0%
  Total deaths: 8
[1]; single dose 5 h post-AKI
  Animal deaths on day 1 post-AKI: 1
  Animal deaths on day 2 post-AKI: 6
  Survival: 13%
  Total deaths: 7
[1]; single dose 6 h post-AKI
  Animal deaths on day 1 post-AKI: 1
  Animal deaths on day 2 post-AKI: 4
  Animal deaths on day 3 post-AKI: 2
  Survival: 13%
  Total deaths: 7
[1]; single dose within 3 hours postischemia, 28 min ischemia, versus control
  Animal survival: dramatically improved animal survival
